Reference: patent US12023333B2, “Phenyl-sulfamoyl.benzoyc acids as ERAP1 modulators” (GREY WOLF THERAPEUTICS LIMITED, priority 2019, dated 2024)

These molecules were tested against T1, Purified ERAP1(37-941)-10His (ERAP1) (Homo sapiens, UniProt Q9NZ08) (assay: ERAP1 mediated hydrolysis of an amide substrate measured in a biochemical system (10-mer decapeptide substrate)). Conditions: 10-mer substrate, 23° C. for 1 h, excitation 279 nm and emission 355 nm; read-out: IC50 vs Decapeptide WRVYEKC(Dnp)ALK-acid (where Dnp is Dinitrophenyl maleimide) (10-mer).
T1 construct: Purified ERAP1(37-941)-10His (ERAP1); 10His (C)
T1 sequence (Q9NZ08 37-941): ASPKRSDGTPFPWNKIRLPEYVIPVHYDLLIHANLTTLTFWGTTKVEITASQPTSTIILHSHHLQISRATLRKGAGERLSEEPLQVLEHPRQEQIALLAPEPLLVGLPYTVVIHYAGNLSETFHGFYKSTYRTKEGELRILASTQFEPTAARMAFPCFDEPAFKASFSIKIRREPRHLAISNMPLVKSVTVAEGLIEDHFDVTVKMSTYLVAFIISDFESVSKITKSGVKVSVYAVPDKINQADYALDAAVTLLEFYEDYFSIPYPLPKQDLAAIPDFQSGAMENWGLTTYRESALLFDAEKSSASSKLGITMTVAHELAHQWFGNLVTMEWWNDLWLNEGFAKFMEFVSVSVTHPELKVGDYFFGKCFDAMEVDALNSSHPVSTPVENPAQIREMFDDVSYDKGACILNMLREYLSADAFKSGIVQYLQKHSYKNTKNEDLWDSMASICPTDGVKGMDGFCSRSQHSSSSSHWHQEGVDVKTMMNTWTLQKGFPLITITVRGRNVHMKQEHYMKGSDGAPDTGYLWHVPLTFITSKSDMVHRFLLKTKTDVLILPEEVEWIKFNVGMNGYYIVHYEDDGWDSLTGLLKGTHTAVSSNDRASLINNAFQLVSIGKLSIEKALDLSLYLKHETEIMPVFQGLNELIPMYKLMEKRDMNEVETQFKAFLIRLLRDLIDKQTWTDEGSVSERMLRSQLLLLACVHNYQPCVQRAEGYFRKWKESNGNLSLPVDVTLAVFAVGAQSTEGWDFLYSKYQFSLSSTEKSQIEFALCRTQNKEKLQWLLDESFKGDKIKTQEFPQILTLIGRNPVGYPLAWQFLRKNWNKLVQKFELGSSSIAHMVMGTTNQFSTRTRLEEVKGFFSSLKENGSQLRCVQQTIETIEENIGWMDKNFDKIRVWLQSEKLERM
In short: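 ERAP1(37-941)-10His preincubated with compound in 25 mM Bis-tris propane, 0.05% HPMC, pH 7.75, then reacted 1 h at 23 °C with 10-mer WRVYEKC(Dnp)ALK (100 μM solution added in equal volume). Fluorescence read at ex 279/em 355 nm; IC50 from 4-parameter fit.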

`O=C(O)c1ccc(C2CC2)c(S(=O)(=O)Nc2cc(C(F)(F)F)ccc2-c2cccs2)c1` [Example 76, 4-cyclopropyl-3-(N-(2-(thiophen-2-yl)-5-(trifluoromethyl)phenyl)sulfamoyl)benzoic acid] and `COc1ccc(C(=O)O)cc1S(=O)(=O)Nc1cc(C(F)(F)F)ccc1-c1cccs1` [Example 3, 4-methoxy-3-(N-(2-(thiophen-2-yl)-5-(trifluoromethyl)phenyl)sulfamoyl)benzoic acid] cannot be ordered by IC50: under 0.5 µM for the first, under 0.5 µM for the second.

`N#Cc1ccc(-c2ncccc2F)c(NS(=O)(=O)c2cc(C(=O)O)ccc2C2CC2)c1` [Example 152, 3-(N-(5-cyano-2-(3-fluoropyridin-2-yl)phenyl)sulfamoyl)-4-cyclopropylbenzoic acid] and `N#Cc1ccc(-c2cccc(F)n2)c(NS(=O)(=O)c2cc(C(=O)O)ccc2C2CC2)c1` [Example 153, 3-(N-(5-cyano-2-(6-fluoropyridin-2-yl)phenyl)sulfamoyl)-4-cyclopropylbenzoic acid] cannot be ordered by IC50: under 0.5 µM for the first, under 0.5 µM for the second.

`CS(=O)(=O)c1cc(NS(=O)(=O)c2cc(C(=O)O)ccc2C2CC2)c(-c2ccccn2)cc1F` [Example 172, 4-cyclopropyl-3-(N-(4-fluoro-5-(methylsulfonyl)-2-(pyridin-2-yl)phenyl)sulfamoyl)benzoic acid] and `N#Cc1cc(NS(=O)(=O)c2cc(C(=O)O)ccc2C2CC2)c(-c2ccccn2)cc1F` [Example 154, 3-(N-(5-cyano-4-fluoro-2-(pyridin-2-yl)phenyl)sulfamoyl)-4-cyclopropylbenzoic acid] cannot be ordered by IC50: under 0.5 µM for the first, under 0.5 µM for the second.

`CCc1ccc(C(=O)O)cc1S(=O)(=O)Nc1cc(C(F)(F)F)ccc1-c1ccc(Cl)s1` [Example 70, 3-(N-(2-(5-chlorothiophen-2-yl)-5-(trifluoromethyl)phenyl)sulfamoyl)-4-ethylbenzoic acid] and `CCc1ccc(C(=O)O)cc1S(=O)(=O)Nc1cc(C(F)(F)F)ccc1-c1ccc(F)s1` [Example 67, 4-ethyl-3-(N-(2-(5-fluorothiophen-2-yl)-5-(trifluoromethyl)phenyl)sulfamoyl)benzoic acid] cannot be ordered by IC50: under 0.5 µM for the first, under 0.5 µM for the second.

`N#Cc1ccc(-c2ccc(Cl)s2)c(NS(=O)(=O)c2cc(C(=O)O)ccc2C2CC2)c1` [Example 111, 3-(N-(2-(5-chlorothiophen-2-yl)-5-cyanophenyl)sulfamoyl)-4-cyclopropylbenzoic acid] and `Cc1ccc(-c2ccc(C#N)cc2NS(=O)(=O)c2cc(C(=O)O)ccc2C2CC2)s1` [Example 95, 3-(N-(5-cyano-2-(5-methylthiophen-2-yl)phenyl)sulfamoyl)-4-cyclopropylbenzoic acid] cannot be ordered by IC50: under 0.5 µM for the first, under 0.5 µM for the second.

Going from `N#Cc1ccc(-c2ccccn2)c(NS(=O)(=O)c2cc(C(=O)O)ccc2C#N)c1` [Example 175, 4-cyano-3-(N-(5-cyano-2-(pyridin-2-yl)phenyl)sulfamoyl)benzoic acid] to `CCc1ccc(C(=O)O)cc1S(=O)(=O)Nc1cc(C#N)ccc1-c1ccccn1` [Example 38, 3-(N-(5-cyano-2-(pyridin-2-yl)phenyl)sulfamoyl)-4-ethylbenzoic acid], the IC50 falls from over 5 µM to under 0.5 µM. The second is the more potent here.

`COc1ccc(C(=O)O)cc1S(=O)(=O)Nc1cc(C(F)(F)F)ccc1-c1ccsc1` [Example 20, 4-methoxy-3-(N-(2-(thiophen-3-yl)-5-(trifluoromethyl)phenyl)sulfamoyl) benzoic acid] and `COc1ccc(C(=O)O)cc1S(=O)(=O)Nc1cc(C(F)(F)F)ccc1-c1ccc(F)cc1` [Example 12, 3-(N-(4′-fluoro-4-(trifluoromethyl)-[1,1′-biphenyl]-2-yl)sulfamoyl)-4-methoxybenzoic acid] cannot be ordered by IC50: under 0.5 µM for the first, under 0.5 µM for the second.

`COc1ccc(C(=O)O)cc1S(=O)(=O)Nc1cc(C(F)(F)F)ccc1-c1ccc(C#N)s1` [Example 125, 3-(N-(2-(5-cyanothiophen-2-yl)-5-(trifluoromethyl)phenyl)sulfamoyl)-4-methoxybenzoic acid] and `CCc1ccc(C(=O)O)cc1S(=O)(=O)Nc1cc(C(F)(F)F)ccc1-c1cccc(C#N)c1` [Example 21, 3-(N-(3′-cyano-4-(trifluoromethyl)-[1,1′-biphenyl]-2-yl)sulfamoyl)-4-ethylbenzoic acid] cannot be ordered by IC50: under 0.5 µM for the first, under 0.5 µM for the second.

`N#Cc1cc(NS(=O)(=O)c2cc(C(=O)O)ccc2C2CC2)c(-c2nccs2)cc1Cl` [Example 192, 3-(N-(4-chloro-5-cyano-2-(thiazol-2-yl)phenyl)sulfamoyl)-4-cyclopropylbenzoic acid] and `N#Cc1cc(NS(=O)(=O)c2cc(C(=O)O)ccc2C2CC2)c(-c2nccs2)cc1F` [Example 183, 3-(N-(5-cyano-4-fluoro-2-(thiazol-2-yl)phenyl)sulfamoyl)-4-cyclopropylbenzoic acid] cannot be ordered by IC50: under 0.5 µM for the first, under 0.5 µM for the second.

`CCc1ccc(C(=O)O)cc1S(=O)(=O)Nc1cc(C#N)ccc1-c1ccc(F)s1` [Example 101, 3-(N-(5-cyano-2-(5-fluorothiophen-2-yl)phenyl)sulfamoyl)-4-ethylbenzoic acid] and `CCc1ccc(C(=O)O)cc1S(=O)(=O)Nc1cc(S(C)(=O)=O)ccc1-c1ccc(F)s1` [Example 106, 4-ethyl-3-(N-(2-(5-fluorothiophen-2-yl)-5-(methylsulfonyl)phenyl)sulfamoyl)benzoic acid] cannot be ordered by IC50: under 0.5 µM for the first, under 0.5 µM for the second.

`Cc1oncc1-c1cc(NS(=O)(=O)c2cc(C(=O)O)ccc2C2CC2)c(-c2ccccn2)cc1Cl` [Example 193, 3-(N-(4-chloro-5-(5-methylisoxazol-4-yl)-2-(pyridin-2-yl)phenyl)sulfamoyl)-4-cyclopropylbenzoic acid] and `Cc1sncc1-c1ccc(-c2ccccn2)c(NS(=O)(=O)c2cc(C(=O)O)ccc2C2CC2)c1` [Example 144, 4-cyclopropyl-3-(N-(5-(5-methylisothiazol-4-yl)-2-(pyridin-2-yl)phenyl)sulfamoyl)benzoic acid] cannot be ordered by IC50: under 0.5 µM for the first, under 0.5 µM for the second.

`Cc1sncc1-c1ccc(-c2ccccc2)c(NS(=O)(=O)c2cc(C(=O)O)ccc2C2CC2)c1` [Example 148, 4-cyclopropyl-3-(N-(4-(5-methylisothiazol-4-yl)-[1,1′-biphenyl]-2-yl)sulfamoyl)benzoic acid] and `Cc1ccc(-c2ccc(-c3cnsc3C)cc2NS(=O)(=O)c2cc(C(=O)O)ccc2C2CC2)s1` [Example 140, 4-cyclopropyl-3-(N-(5-(5-methylisothiazol-4-yl)-2-(5-methylthiophen-2-yl)phenyl)sulfamoyl)benzoic acid] cannot be ordered by IC50: under 0.5 µM for the first, under 0.5 µM for the second.

`CCc1ccc(C(=O)O)cc1S(=O)(=O)Nc1cc(C(F)(F)F)ccc1-c1cccnc1` [Example 27, 4-ethyl-3-(N-(2-(pyridin-3-yl)-5-(trifluoromethyl)phenyl)sulfamoyl)benzoic acid] and `O=C(O)c1ccc(C2CC2)c(S(=O)(=O)Nc2cc(C(F)(F)F)ccc2-c2cccnc2)c1` [Example 98, 4-cyclopropyl-3-(N-(2-(pyridin-3-yl)-5-(trifluoromethyl)phenyl)sulfamoyl)benzoic acid] cannot be ordered by IC50: under 0.5 µM for the first, under 0.5 µM for the second.

`O=C(O)c1ccc(C2CC2)c(S(=O)(=O)Nc2cc(C(F)(F)F)ccc2-c2ccccn2)c1` [Example 72, 4-cyclopropyl-3-(N-(2-(pyridin-2-yl)-5-(trifluoromethyl)phenyl)sulfamoyl)benzoic acid] and `CCc1ccc(C(=O)O)cc1S(=O)(=O)Nc1cc(S(C)(=O)=O)ccc1-c1ccccn1` [Example 71, 4-ethyl-3-(N-(5-(methylsulfonyl)-2-(pyridin-2-yl)phenyl)sulfamoyl)benzoic acid] cannot be ordered by IC50: under 0.5 µM for the first, under 0.5 µM for the second.

`CCc1ccc(C(=O)O)cc1S(=O)(=O)Nc1cc(C(F)(F)F)c(F)cc1-n1cccc1` [Example 130, 4-ethyl-3-(N-(4-fluoro-2-(pyrrol-1-yl)-5-(trifluoromethyl)phenyl)sulfamoyl)benzoic acid] and `COc1ccc(C(=O)O)cc1S(=O)(=O)Nc1cc(C(F)(F)F)c(F)cc1-n1cccc1` [Example 162, 3-(N-(4-fluoro-2-(pyrrol-1-yl)-5-(trifluoromethyl)phenyl)sulfamoyl)-4-methoxybenzoic acid] cannot be ordered by IC50: under 0.5 µM for the first, under 0.5 µM for the second.

`Cc1oncc1-c1ccc(-c2ccc(Cl)s2)c(NS(=O)(=O)c2cc(C(=O)O)ccc2C2CC2)c1` [Example 164, 3-(N-(2-(5-chlorothiophen-2-yl)-5-(5-methylisoxazol-4-yl)phenyl)sulfamoyl)-4-cyclopropylbenzoic acid] and `CS(=O)(=O)c1ccc(-c2ccc(C#N)s2)c(NS(=O)(=O)c2cc(C(=O)O)ccc2C2CC2)c1` [Example 124, 3-(N-(2-(5-cyanothiophen-2-yl)-5-(methylsulfonyl)phenyl)sulfamoyl)-4-cyclopropylbenzoic acid] cannot be ordered by IC50: under 0.5 µM for the first, under 0.5 µM for the second.

`O=C(O)c1ccc(C2CC2)c(S(=O)(=O)Nc2cc(-c3ccns3)c(F)cc2-n2cccc2)c1` [Example 198, 4-cyclopropyl-3-(N-(4-fluoro-5-(isothiazol-5-yl)-2-(pyrrol-1-yl)phenyl)sulfamoyl)benzoic acid] and `CCc1ccc(C(=O)O)cc1S(=O)(=O)Nc1cc(C#N)ccc1-c1cccc(F)c1` [Example 41] cannot be ordered by IC50: under 0.5 µM for the first, under 0.5 µM for the second.

`COc1ccc(C(=O)O)cc1S(=O)(=O)Nc1cc(-c2nnn[nH]2)ccc1-c1cccs1` [Example 65, 3-(N-(5-(tetrazol-5-yl)-2-(thiophen-2-yl)phenyl)sulfamoyl)-4-methoxybenzoic acid] and `CCc1ccc(C(=O)O)cc1S(=O)(=O)Nc1cc(C(F)(F)F)ccc1-c1cncs1` [Example 129, 4-ethyl-3-(N-(2-(thiazol-5-yl)-5-(trifluoromethyl)phenyl)sulfamoyl)benzoic acid] cannot be ordered by IC50: under 0.5 µM for the first, under 0.5 µM for the second.

`CCc1ccc(C(=O)O)cc1S(=O)(=O)Nc1cc(S(C)(=O)=O)ccc1-c1cccc(C#N)c1` [Example 39, 3-(N-(3′-cyano-4-(methylsulfonyl)-[1,1′-biphenyl]-2-yl)sulfamoyl)-4-ethylbenzoic acid] was tested, and the IC50 was under 0.5 µM.
